Test results published in ChEMBL document CHEMBL5465560, “Selectivity Literature for EUbOPEN Chemogenomic Library” (2024).

Experiments:
[1] = target: T1, Protein kinase C iota type (Homo sapiens) (UniProt P41743); assay: Selectivity interaction (KinomeScan (DiscoverX)) EUB0000666a PRKCI; conditions: at 10 µM
T1 sequence (whole entry): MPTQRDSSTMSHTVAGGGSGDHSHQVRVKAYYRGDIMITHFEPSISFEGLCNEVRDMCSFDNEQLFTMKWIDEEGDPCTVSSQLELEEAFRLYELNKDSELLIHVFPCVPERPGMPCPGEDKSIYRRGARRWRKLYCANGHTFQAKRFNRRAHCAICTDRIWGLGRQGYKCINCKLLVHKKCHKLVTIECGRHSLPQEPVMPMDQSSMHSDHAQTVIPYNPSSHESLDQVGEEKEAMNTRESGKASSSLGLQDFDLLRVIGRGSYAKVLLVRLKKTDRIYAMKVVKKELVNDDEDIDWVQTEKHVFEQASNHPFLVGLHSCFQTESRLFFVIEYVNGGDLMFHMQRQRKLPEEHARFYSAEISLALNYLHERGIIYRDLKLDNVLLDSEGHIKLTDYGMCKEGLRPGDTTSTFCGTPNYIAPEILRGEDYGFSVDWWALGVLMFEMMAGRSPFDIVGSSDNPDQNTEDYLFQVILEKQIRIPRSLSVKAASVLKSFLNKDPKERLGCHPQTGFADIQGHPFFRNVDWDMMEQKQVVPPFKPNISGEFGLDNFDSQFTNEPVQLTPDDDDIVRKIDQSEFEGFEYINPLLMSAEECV

[2] = target: T2, Mitogen-activated protein kinase kinase kinase 5 (Homo sapiens) (UniProt Q99683); assay: Selectivity interaction (KinomeScan (DiscoverX)) EUB0000595a MAP3K5; conditions: at 10 µM
T2 sequence (whole entry): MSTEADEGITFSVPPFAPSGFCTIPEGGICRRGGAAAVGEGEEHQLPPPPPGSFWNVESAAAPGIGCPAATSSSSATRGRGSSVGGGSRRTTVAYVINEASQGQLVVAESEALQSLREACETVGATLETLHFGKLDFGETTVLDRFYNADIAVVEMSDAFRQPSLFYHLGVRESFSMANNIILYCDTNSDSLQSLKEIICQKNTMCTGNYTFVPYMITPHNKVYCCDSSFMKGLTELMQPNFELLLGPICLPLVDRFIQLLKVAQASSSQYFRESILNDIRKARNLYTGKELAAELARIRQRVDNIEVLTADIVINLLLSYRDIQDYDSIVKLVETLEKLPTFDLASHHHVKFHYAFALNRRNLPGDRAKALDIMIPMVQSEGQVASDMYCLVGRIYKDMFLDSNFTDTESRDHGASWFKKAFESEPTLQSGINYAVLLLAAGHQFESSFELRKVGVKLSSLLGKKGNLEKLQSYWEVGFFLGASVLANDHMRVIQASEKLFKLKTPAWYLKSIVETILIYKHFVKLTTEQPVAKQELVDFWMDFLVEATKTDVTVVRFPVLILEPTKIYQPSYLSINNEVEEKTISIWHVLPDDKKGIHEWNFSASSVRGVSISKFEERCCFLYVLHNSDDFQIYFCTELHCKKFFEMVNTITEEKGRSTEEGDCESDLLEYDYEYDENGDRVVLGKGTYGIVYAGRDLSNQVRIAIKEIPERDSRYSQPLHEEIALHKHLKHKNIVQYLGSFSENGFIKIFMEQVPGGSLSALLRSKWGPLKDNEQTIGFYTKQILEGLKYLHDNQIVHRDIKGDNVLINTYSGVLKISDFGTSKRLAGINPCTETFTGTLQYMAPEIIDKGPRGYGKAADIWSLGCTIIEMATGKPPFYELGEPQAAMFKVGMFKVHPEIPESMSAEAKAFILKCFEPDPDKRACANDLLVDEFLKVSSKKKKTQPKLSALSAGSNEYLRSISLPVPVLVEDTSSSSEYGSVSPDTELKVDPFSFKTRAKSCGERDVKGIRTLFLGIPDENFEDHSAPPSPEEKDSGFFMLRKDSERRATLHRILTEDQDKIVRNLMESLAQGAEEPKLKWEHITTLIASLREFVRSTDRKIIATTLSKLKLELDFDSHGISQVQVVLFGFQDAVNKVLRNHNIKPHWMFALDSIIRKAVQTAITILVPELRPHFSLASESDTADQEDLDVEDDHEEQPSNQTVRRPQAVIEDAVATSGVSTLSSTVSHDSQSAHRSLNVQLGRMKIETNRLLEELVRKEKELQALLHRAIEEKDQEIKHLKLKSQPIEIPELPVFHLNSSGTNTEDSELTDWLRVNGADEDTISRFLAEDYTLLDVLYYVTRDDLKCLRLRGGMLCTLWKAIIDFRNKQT

[3] = target: Serine/threonine-protein kinase Nek6 (Homo sapiens) (UniProt Q9HC98); assay: Selectivity interaction (KinomeScan (DiscoverX)) EUB0001049a NEK6; conditions: at 1 µM
[4] = target: MAP kinase-activated protein kinase 2 (Homo sapiens, UniProt P49137); assay: Selectivity interaction (KinomeScan (DiscoverX)) EUB0000655a MAPKAPK2; conditions: at 10 µM
[5] = target: T3, Peripheral plasma membrane protein CASK (Homo sapiens) (UniProt O14936); assay: Selectivity interaction (KinomeScan (DiscoverX)) EUB0000618a CASK; conditions: at 10 µM
T3 sequence (whole entry): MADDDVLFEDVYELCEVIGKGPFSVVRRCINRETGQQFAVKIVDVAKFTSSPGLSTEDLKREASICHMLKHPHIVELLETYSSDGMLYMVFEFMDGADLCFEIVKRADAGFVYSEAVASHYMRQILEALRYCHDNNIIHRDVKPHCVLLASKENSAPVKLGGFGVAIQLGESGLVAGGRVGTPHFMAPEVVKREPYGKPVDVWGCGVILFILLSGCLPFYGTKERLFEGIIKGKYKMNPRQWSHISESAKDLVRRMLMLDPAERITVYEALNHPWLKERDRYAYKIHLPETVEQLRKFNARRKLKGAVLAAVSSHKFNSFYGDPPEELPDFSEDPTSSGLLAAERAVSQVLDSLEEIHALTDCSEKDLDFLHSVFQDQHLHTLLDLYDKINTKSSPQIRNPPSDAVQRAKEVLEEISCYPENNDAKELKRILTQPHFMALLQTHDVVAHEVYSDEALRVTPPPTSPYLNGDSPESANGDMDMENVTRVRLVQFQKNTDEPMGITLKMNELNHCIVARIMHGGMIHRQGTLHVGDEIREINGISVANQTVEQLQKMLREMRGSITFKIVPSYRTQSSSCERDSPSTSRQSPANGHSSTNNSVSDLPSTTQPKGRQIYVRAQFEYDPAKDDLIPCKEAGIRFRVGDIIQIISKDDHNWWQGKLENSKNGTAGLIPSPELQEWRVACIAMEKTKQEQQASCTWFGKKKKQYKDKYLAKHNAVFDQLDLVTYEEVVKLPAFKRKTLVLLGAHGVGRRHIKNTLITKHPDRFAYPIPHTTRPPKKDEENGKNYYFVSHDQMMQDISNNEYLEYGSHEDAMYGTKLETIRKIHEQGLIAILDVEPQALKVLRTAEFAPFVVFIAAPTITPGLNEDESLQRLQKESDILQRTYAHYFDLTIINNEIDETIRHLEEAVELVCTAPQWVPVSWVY

Chain of Serine/threonine-protein kinase Nek6 (Homo sapiens) (Q9HC98 whole entry): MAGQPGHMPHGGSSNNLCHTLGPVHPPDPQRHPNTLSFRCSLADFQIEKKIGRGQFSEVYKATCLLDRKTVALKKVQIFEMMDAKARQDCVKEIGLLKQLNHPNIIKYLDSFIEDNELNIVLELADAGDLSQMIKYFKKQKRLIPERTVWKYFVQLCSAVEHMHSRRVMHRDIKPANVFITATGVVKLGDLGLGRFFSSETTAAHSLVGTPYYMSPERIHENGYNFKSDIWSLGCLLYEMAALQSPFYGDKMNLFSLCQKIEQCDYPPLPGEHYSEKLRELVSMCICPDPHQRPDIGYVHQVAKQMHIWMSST
Chain of MAP kinase-activated protein kinase 2 (P49137 whole entry, looked up): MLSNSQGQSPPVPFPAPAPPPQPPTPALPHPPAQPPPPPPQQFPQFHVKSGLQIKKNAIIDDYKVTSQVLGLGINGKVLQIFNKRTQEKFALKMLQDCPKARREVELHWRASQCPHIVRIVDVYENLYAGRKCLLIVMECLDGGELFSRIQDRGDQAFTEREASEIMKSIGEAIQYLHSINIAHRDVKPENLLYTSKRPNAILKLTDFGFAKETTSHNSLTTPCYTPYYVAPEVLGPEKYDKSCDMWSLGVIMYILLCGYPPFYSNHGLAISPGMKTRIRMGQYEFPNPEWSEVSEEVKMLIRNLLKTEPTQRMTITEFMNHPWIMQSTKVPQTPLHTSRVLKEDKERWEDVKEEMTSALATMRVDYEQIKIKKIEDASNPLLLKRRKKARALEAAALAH

Question: Which % of control [1] does the source give for O=C(NOC[C@H](O)CO)c1ccc(F)c(F)c1Nc1ccc(I)cc1F here?
Answer: 70%

Question: For COCC(=O)NC/C=C/c1ccc2ncnc(Nc3ccc(Oc4ccc(C)nc4)c(C)c3)c2c1 [CP-724714], which % of control [2] is on record?
Answer: 90%

Question: Which % of control [3] does the source give for COc1cc(Nc2nc(C)cc(-c3cnn4nc(OC)ccc34)n2)cc(C(F)(F)F)c1 here?
Answer: 89%

Question: How did the % of control [4] turn out when CN(C)CCOc1ccc(-c2nc(-c3ccncc3)c(-c3ccc4c(c3)CC/C4=N\O)[nH]2)cc1 was run?
Answer: 100%

Question: O[C@H]1CC[C@H](Nc2ncc3nc(Nc4c(F)cc(F)cc4F)n([C@H]4CCOC4)c3n2)CC1 was tested. Which % of control [5] did it give?
Answer: 95%
